From patent US20080199546A1, “Anti-resorptive and bone building dietary supplements and methods of use” (priority 2006, published 2008)

Columns and labels:
BMP-2 promoter = assay: BMP2 promoter assay (luciferase reporter); assay type: cell-based, murine; conditions: summary of Table 1
RANK-L = assay: Production/release of RANK-L protein (ELISA, IL-1b stimulated MG-63 cells); assay type: cell-based; conditions: Homo sapiens, MG-63, 1 μg/ml
Procedure: Weigh between 150 to 250 mg of each ingredient into a 15 ml conial bottomed tube. […] For solvent control, mix 1.5 ml DMSO, 0.9 ml ethanol, and 0.6 ml water. Vortex thoroughly. Sonicate for 10 minute in water bath, room temperature. Vortex thoroughly again. Dilute ingredient stocks in fresh phenol red-free media. Human osteosarcoma cell line, MG-63 (ATCC# CRL-1427), is maintained in phenol-red containing MEM (as recommended by ATCC) at 37° C. and 5% CO2. Twenty-four hours prior to experimentation, 3×10^5 cells are seeded in 12-well plates in phenol-red free MEM. Spent medium is removed from wells and MG-63 cells (ATCC # CRL-1427) are pretreated with 1, 0.1, 0.01 μg/ml of each test ingredient or 30 ng/ml TGF-beta (+ control) for 4 hours at 37° C., 5% CO2. Stock solution of TGF-beta is 30 μg/ml (from R&D Systems, cat# 100-B-001). After pretreatment incubation period, […] IL-1b (Calbiochem (catalog # 407615), and stock solution at 10 μg/ml, cat # 407615) were added to the cell cultures for 18 hours at 37° C. Supernatant media from the treated and stimulated cells were removed and total RANK-L proteins measured using RANK-L ELISA (in triplicate) as described by manufacturer (from APOTECH, catalog # APO-54N-016-k101). The resulting protein quantity was compared to that of media (null) treated stimulated cells to determine percent decrease in total RANK-L protein.

RANK-L gene expression = RANK-L gene expression (qPCR, IL-1b stimulated MG63 cells); assay type: cell-based, human; conditions: IL1B 3 ng/ml alone (stimulus)
Procedure: Punicalagin test samples are extracted from pomegranates, including from pomegranate peels, skins, fleshy fruit, and seeds using 100% DMSO at 100 mg/ml. Particulate matter in the extraction is not removed. The punicalagin test samples are diluted in MEM without phenol red (estrogenic) and 0.1% FBS to lower background signaling to ten times the final concentrations. Final DMSO concentrations are kept below 0.2% and are kept constant during treatments. DMSO solvent control is used in the untreated group.
MG63 cells (ATCC # […]), a human-derived osteosarcoma cell line, are plated at 200,000 cells per well in a 12 well plate with phenol red free MEM at 10% FBS. The next day the media is changed to phenol red free MEM at 0.1% FBS. The cells are incubated for four hours and then treated with punicalagin test samples at concentrations of 1, 10, and 100 μg/ml.
After four hours of treatment, IL-1b (Calbiochem (catalog # 407615), stock solution at 10 μg/ml, cat # 407615) are added to a final concentration of 3 ng/mL. […]
After 16 hours the cells are lysed and the RNA is extracted from the cells with the RNasy purification kit (Qiagen). RNA is reverse transcribed to cDNA and quantified by qPCR using 2-step qRT-PCR reagents (Invitrogen), and 4 μL of purified RNA. […]
RANK-L and GAPDH gene expression Ct data are obtained. RNA is quantified with adjustments for GAPDH expression. […]

[1] = system: MMP9 (type IV collagenase); assay: MMP9 (type IV collagenase) protein expression, keratinocyte/fibroblast co-culture stimulated with IL-1B; assay type: cell-based; conditions: IL1B 10 ng/ml alone (stimulus); untreated = 1.0
Procedure: Keratinocytes and fibroblasts were co-cultured in DMEM containing 0.5% BSA. Co-cultures were exposed to various concentrations of punicalagins (ranging from 0.1%-10%) extracted from pomegranates. Specifically, the ability of the pomegranate extracts to inhibit type IV collagenase protein (matrix metalloproteinase-9/MMP9) expression at concentrations of 1.0 μg/ml, 10 μg/ml, and 100 μg/ml were tested. Following exposure to the pomegranate extracts, the co-culture cells were stimulated with 10 ng/ml of IL-1B for 18 hours. Following stimulation with IL-1B for 18 hours, and MMP9 concentration was determined in the media as shown below in Table 8.

Compound	Activation of the BMP-2 promoter (in words) (BMP-2 promoter)	inhibition at 1 µg/mL (RANK-L) [%]	RANK-L Expression (fold increase) (RANK-L gene expression)	MMP9 expression (fold of untreated) [1]
CC(C)Oc1ccc2c(=O)c(-c3ccccc3)coc2c1 [I, 7-isopropoxy isoflavone]	most potent activators	0.8 ± 0.3	–	–
IL1B: IL-1b (Calbiochem), stimulus of RANK-L and MMP9 expression	–	–	3.3 ± 0	1.65
O=c1c(O)c(-c2ccc(O)c(O)c2)oc2cc(O)cc(O)c12 [Q, Quercetin]	most potent activators	–	–	–
